Experimental data as given in patent US6500455B1, “Tolperison-containing, pharmaceutical preparation for oral administration” (Sanochemia Pharmazeutika, priority 1999, dated 2002).

Experiments:
[1] = effectiveness of the Tolperison isomers; conditions: comparison of (−) isomer, (+) isomer and racemic mixtures
[2] = blood (of humans); active ingredient present as 50/50 racemate; cited from earlier work

| Structure (SMILES) | effectiveness of the isomers compared with each other [1] | proportion of the isomer present in the blood [2] |
| --- | --- | --- |
| Cc1ccc(C(=O)C(C)CN2CCCCC2)cc1 (single isomer, unassigned; (+)) [(+) isomer] | almost identically effective | ≤ 10% |
| Cc1ccc(C(=O)C(C)CN2CCCCC2)cc1 (single isomer, unassigned; (-)) [(−) isomer, 2,4′-dimethyl-3-piperidonopropriophenone] | almost identically effective | up to 90% |
